Legend:
[1] = system: CEM (human T-lymphocyte cells); assay: Cell growth assay, CEM cells; type: cell-based; conditions: racemic compounds, 72 h, Coulter counter
Procedure: (§1) HeLa (human cervix carcinoma) and CEM (human T-lymphoblast) were grown in Dulbecco’s modified Eagle’s medium (DMEM; Gibco, Carlsbad, CA, USA), supplemented with 0.01 M Hepes (Gibco) and 1 mM sodium pyruvate (Gibco) in a humidified 5% CO2 incubator at 37 °C. HMEC-1 (human microvascular endothelial cells) was maintained in Dulbecco’s modified Eagle’s medium (DMEM)/low glucose containing glutamine (2 mM). The media were supplemented with 10% fetal bovine serum (FBS, Gibco), penicillin ([…]), streptomycin ([…]), and amphotericin B ([…]). CEM cells were seeded in 96-well plates at 60,000 cells/well in the presence of different concentrations of the compounds, and allowed to proliferate for 72 h. HeLa cells were seeded in 96-well plates at 15,000 cells/well in the presence of different concentrations of the compounds. After 4 days of incubation, the cells were trypsinized and counted. HMEC-1 cells were seeded in 48-well plates at 20,000 cells/well. After 24 h, the compounds were added at different concentrations. The cells were allowed to proliferate for 4 days in the presence of the compounds, trypsinized, and counted. All cells were counted by means of a Coulter counter (Analis, Belgium).

[2] = system: HeLa (human cervix carcinoma cells); assay: Cell growth assay, HeLa cells; type: cell-based; conditions: 96 h, racemic compounds, 4 days, Coulter counter
Procedure: as §1

[3] = system: HMEC-1 (human dermal microvascular endothelial cells); assay: Cell growth assay, HMEC-1 cells; type: cell-based; conditions: HMEC-1, 96 h, racemic compounds, 4 days, Coulter counter
Procedure: as §1

[4] = system: HT-29 (colorectal adenocarcinoma); assay: Cell growth assay (Trypan blue), HT-29 cells; type: cell-based, human; conditions: 72 h
Procedure: (§2) A2780 (human ovarian carcinoma) and HT-29 (human colorectal adenocarcinoma) were grown in RPMI 1640 (Sigma Chemical Co., St. Louis, MO, USA), and MSTO-211H (human biphasic mesothelioma) were grown in RPMI 1640 (Sigma Chemical Co.) supplemented with 2.38 g/L Hepes, 0.11 g/L pyruvate sodium, and 2.5 g/L glucose. Then, 1.5 g/L NaHCO3, 10% heat-inactivated fetal calf serum (Biowest), 100 U/mL penicillin, 100 μg/mL streptomycin, and 0.25 μg/mL amphotericin B (Sigma Chemical Co.) were added to the media. The cells were cultured at 37 °C in a moist atmosphere of 5% carbon dioxide in air. Cells (2.5–3 × 10^4) were seeded into each well of a 24-well cell culture plate. After incubation for 24 h, various concentrations of the test agents were added to the complete medium and incubated for a further 72 h. A Trypan blue assay was performed to determine cell viability. Cytotoxicity data were expressed as IC50 values, i.e., the concentration of the test compound able to induce a 50% reduction in cell number compared with control cultures.

[5] = system: A2780 (ovarian carcinoma); assay: Cell growth assay (Trypan blue), A2780 cells; type: cell-based, human; conditions: 72 h, Trypan blue
Procedure: as §2

[6] = system: MSTO-211H (biphasic mesothelioma); assay: Cell growth assay (Trypan blue), MSTO-211H cells; type: cell-based, human; conditions: for IC50: 72 h, Trypan blue
Procedure: as §2

[7] = molecular target: quinone reductase 2 (QR2); design: method as in PMID 22716080, PMID 16765324; conditions: read-out: QR2 inhibitory activity IC50; cited from earlier work
[8] = Homo sapiens, HT-29, racemic compounds
[9] = Homo sapiens, A2780, 72 h, racemic compounds
[10] = Homo sapiens, MSTO-211H, racemic compounds
[11] = Homo sapiens, HT-29, pure enantiomers
[12] = Homo sapiens, A2780, 72 h, pure enantiomers
[13] = Homo sapiens, MSTO-211H, pure enantiomers

SMILES | IC50 [1] [µM] | IC50 [2] [µM] | IC50 [3] [µM] | IC50 [4, 8] [µM] | IC50 [5, 9] [µM] | IC50 [6, 10] [µM] | melting point [°C] | IC50 [4, 11] [µM] | IC50 [5, 12] [µM] | IC50 [6, 13] [µM] | cytotoxic effect on MSTO-211H (in words) ([6]; pure enantiomers) | IC50 ([4]; pure enantiomers) [µM] | IC50 ([5]; pure enantiomers) [µM] | IC50 ([6]; pure enantiomers) [µM] | IC50 [7] [µM]
Cc1ccc(O)c(CNC2CCCc3ccc(C)nc32)c1 (racemic) [Compound 2b, 4-methyl-2-(((2-methyl-5,6,7,8-tetrahydroquinolin-8-yl)amino)methyl)phenol] | 23 ± 4 | 75 ± 11 | 60 ± 2 | 62 ± 8 | 25 ± 5 | 35 ± 10 | 89.5 to 90.8 | – | – | – | – | – | – | – | –
Cc1ccc2c(n1)C(/N=C/c1ccccn1)CCC2 (racemic) [Compound 3a, (E)-N-(2-methyl-5,6,7,8-tetrahydroquinolin-8-yl)-1-(pyridin-2-yl)methanimine] | 33 ± 7 | 34 ± 6 | 77 ± 32 | 42 ± 6 | 16 ± 2 | 30 ± 8 | 102.8 to 104.3 | – | – | – | – | – | – | – | –
Cc1ccc2c(n1)C(/N=C/c1ncc[nH]1)CCC2 (racemic) [Compound 5a, (E)-1-(1H-imidazol-2-yl)-N-(2-methyl-5,6,7,8-tetrahydroquinolin-8-yl)methanimine] | 43 ± 7 | 37 ± 9 | 57 ± 4 | 70 ± 2 | 13 ± 3 | 31 ± 7 | 101.2 to 102.6 | – | – | – | – | – | – | – | –
Cc1ccc(O)c(CN[C@@H]2CCCc3ccc(C)nc32)c1 [(R)-2b, 4-methyl-2-(((2-methyl-5,6,7,8-tetrahydroquinolin-8-yl)amino)methyl)phenol] | – | – | – | – | – | – | – | > 20 | 15.2 ± 2.3 | > 20 | inactive | – | – | – | –
Cc1ccc2c(n1)[C@H](/N=C/c1ccccn1)CCC2 [(R)-3a, (E)-N-(2-methyl-5,6,7,8-tetrahydroquinolin-8-yl)-1-(pyridin-2-yl)methanimine] | – | – | – | – | – | – | – | > 20 | 11.7 ± 2 | 14.9 ± 1.4 | – | – | – | – | –
Cc1ccc(O)c(CN[C@H]2CCCc3ccc(C)nc32)c1 [(S)-2b, 4-methyl-2-(((2-methyl-5,6,7,8-tetrahydroquinolin-8-yl)amino)methyl)phenol] | – | – | – | – | – | – | – | – | – | – | inactive | > 20 | 11.5 ± 2.6 | > 20 | –
Cc1ccc2c(n1)[C@@H](/N=C/c1ccccn1)CCC2 [(S)-3a, (E)-N-(2-methyl-5,6,7,8-tetrahydroquinolin-8-yl)-1-(pyridin-2-yl)methanimine] | – | – | – | – | – | – | – | – | – | – | – | > 20 | 11.4 ± 0.4 | 11.8 ± 2.3 | –
Cc1ccc2c(n1)[C@@H](/N=C/c1ncc[nH]1)CCC2 [(S)-5a, (E)-1-(1H-imidazol-2-yl)-N-(2-methyl-5,6,7,8-tetrahydroquinolin-8-yl)methanimine] | – | – | – | – | – | – | – | – | – | – | ineffective | > 20 | 17.2 ± 3 | > 20 | –
Cc1ccc2c(n1)C(/N=C/c1cccc(C)c1O)CCC2 (centres unmarked) [Compound 1a, (E)-2-methyl-6-(((2-methyl-5,6,7,8-tetrahydroquinolin-8-yl)imino)methyl)phenol] | > 100 | > 100 | > 100 | 83 ± 5 | 65 ± 9 | 69 ± 3 | 102.2 to 103.8 | – | – | – | – | – | – | – | –
Cc1ccc2c(n1)C(NCc1cccc(C)c1O)CCC2 (centres unmarked) [Compound 1b, 2-methyl-6-(((2-methyl-5,6,7,8-tetrahydroquinolin-8-yl)amino)methyl)phenol] | 66 ± 47 | 93 ± 10 | 63 ± 2 | 57 ± 6 | 42 ± 5 | 28 ± 4 | 89.2 to 91.1 | – | – | – | – | – | – | – | –
Cc1ccc(O)c(/C=N/C2CCCc3ccc(C)nc32)c1 (centres unmarked) [Compound 2a, (E)-4-methyl-2-(((2-methyl-5,6,7,8-tetrahydroquinolin-8-yl)imino)methyl)phenol] | > 100 | > 100 | > 100 | > 100 | > 100 | 95 ± 5 | 101.8 to 103.4 | – | – | – | – | – | – | – | –
Cc1ccc2c(n1)C(NCc1ccccn1)CCC2 (centres unmarked) [Compound 3b, 2-methyl-N-(pyridin-2-ylmethyl)-5,6,7,8-tetrahydroquinolin-8-amine] | > 100 | > 100 | > 100 | 42 ± 6 | 11 ± 3 | 15 ± 3 | 87.8 to 89.2 | – | – | – | – | – | – | – | –
CN1C(=O)c2cc(C(N)=O)nc3c(N)c(Cl)c(N)c1c23 [Compound 4, ammosamide B] | – | – | – | – | – | – | – | – | – | – | – | – | – | – | 0.061
Cc1ccc2c(n1)C(/N=C/c1cn(C)cn1)CCC2 (centres unmarked) [Compound 4a, (E)-1-(1-methyl-1H-imidazol-4-yl)-N-(2-methyl-5,6,7,8-tetrahydroquinolin-8-yl)methanimine] | > 100 | > 100 | > 100 | 42 ± 8 | 11 ± 2 | 14 ± 1 | 103.2 to 104.5 | – | – | – | – | – | – | – | –
Cc1ccc2c(n1)C(NCc1cn(C)cn1)CCC2 (centres unmarked) [Compound 4b, 2-methyl-N-((1-methyl-1H-imidazol-4-yl)methyl)-5,6,7,8-tetrahydroquinolin-8-amine] | > 100 | > 100 | 89 ± 2 | > 100 | > 100 | > 100 | 90.3 to 92.2 | – | – | – | – | – | – | – | –
CNc1c(Cl)c(N)c2c3c(cc(C(N)=O)nc13)C(=O)N2C [Compound 5] | – | – | – | – | – | – | – | – | – | – | – | – | – | – | 0.0041
Cc1ccc2c(n1)C(NCc1ncc[nH]1)CCC2 (centres unmarked) [Compound 5b, N-((1H-imidazol-2-yl)methyl)-2-methyl-5,6,7,8-tetrahydroquinolin-8-amine] | 51 ± 13 | 71 ± 3 | 53 | 73 ± 6 | 38 ± 7 | 44 ± 5 | 86.7 to 88.1 | – | – | – | – | – | – | – | –
Cc1ccc2c(n1)C(/N=C/c1cc3c4c(c1O)CCCN4CCC3)CCC2 (centres unmarked) [Compound 6a, (E)-9-(((2-methyl-5,6,7,8-tetrahydroquinolin-8-yl)imino)methyl)-2,3,6,7-tetrahydro-1H,5H-pyrido [3,2,1-ij]quinolin-8-ol] | 64 ± 32 | > 100 | 82 ± 4 | 46 ± 7 | 36 ± 4 | 25 ± 11 | 104.2 to 105.8 | – | – | – | – | – | – | – | –
Cc1ccc2c(n1)C(NCc1cc3c4c(c1O)CCCN4CCC3)CCC2 (centres unmarked) [Compound 6b, 9-(((2-methyl-5,6,7,8-tetrahydroquinolin-8-yl)amino)methyl)-2,3,6,7-tetrahydro-1H,5H-pyrido[3 ,2,1-ij]quinolin-8-ol] | 77 ± 32 | > 100 | 81 ± 26 | 74 ± 3 | 36 ± 4 | 77 ± 7 | 94.3 to 95.5 | – | – | – | – | – | – | – | –

Source: article PMC7729733, “Biological Properties of New Chiral 2-Methyl-5,6,7,8-tetrahydroquinolin-8-amine-based Compounds” (Molecules, 2020)
